Measured values as given in PMC8287944, “5-Fluorouracil blocks quorum-sensing of biofilm-embedded methicillin-resistant Staphylococcus aureus in mice” (Nucleic Acids Research, 2021).
pIC50: −log10 of the molar value.

Experiments:
[1] = tested on: AI-2 production by HEK-293AI2 cells expressing MTAN and LuxS; test: HEK-293AI2 / V. harveyi (MM32) AI-2 detection platform (AI-2 production by engineered human cells); type: cell-based, human cells; MTAN and LuxS derived from E. coli; conditions: Homo sapiens, 24 h, HEK-293AI2 cells exposed 24 h; AI-2 in supernatant read by V. harveyi MM32 bioluminescence
Description: LuxS (MF688636) and MTAN (MF688635) transgenes derived from E. coli were codon-optimized for stable expression in mammalian cells. For the generation of double stable HEK-293-derived cell line HEK-293AI2 transgenic for simultaneous constitutive PhEFIα-driven MTAN and PhCMV-driven LuxS-eYFP expression, 250,000 cells were first transfected with 2000 ng of pFS168 (PhEFIα-MTAN-pA) and selected in culture medium containing 20 μg/ml blasticidin (cat. no. ant-bl-1; InvivoGen, San Diego, CA, USA) for two weeks. […] After 17 days of selection in medium containing 200 μg/ml (w/v) zeocin (cat. no. ant-zn-1; Invivogen, San Diego, CA, USA) and 20 μg/ml blasticidin, resistant monoclonal cells (HEK-293sFS26cx) were obtained by limiting dilution cloning and screened for AI-2 activity in their supernatants. […] The cell line was regularly tested for the absence of mycoplasma.
20 μl of HEK-293AI2 cells (10^4 cells per well) were resuspended in 20 μl Dulbecco's modified Eagle's medium (DMEM; Thermo Fisher, Basel, Switzerland, low glucose, without phenol red, cat. no. 11880–028) supplemented with 4 mM L-glutamine (Thermo Fisher, Basel, Switzerland, cat. no. 25030-024), 30 μg/ml kanamycin and 1% FCS and seeded into a poly-L-lysine-coated Black Greiner clear-bottom 384-well plate (cat. no. 3845; Corning, New York, USA) using a Multidrop Combi Reagent Dispenser (cat. no. 5840300; Thermo Fisher, Basel, Switzerland). Cells were incubated for 20 h and then 20 nL of individual compounds (stock solution in 5 mM in DMSO) or controls (stock solutions of novobiocin, 10 mM in DMSO; staurosporin, 20 mM in DMSO) were transferred with Echo 550 liquid handler (Labcyte, San Jose, CA, USA) into the plate.
Compound-treated cells were cultivated for 24 hours and the cell culture supernatants (10 μl) were transferred to dry black polystyrene 384-well plates (Corning, New York, USA, cat. no. 3571). The AI-2 activity was quantified by adding 40 μl per 384-well of V. harveyi MM32 AI-2 reporter strain, diluted 1:500 in AB-Medium from a stationary overnight culture grown in Luria Marine (LM)-medium containing 20 g of NaCl, 10 g of Bacto Tryptone (Difco Laboratories), and 5 g of yeast extract (BBL) ([25]). Plates were sealed with BREATHseal™ (cat. no. 7.676 050; Greiner Bio-One, Frickenhausen, Germany) and incubated for 4 h at 30°C and 200 rpm on a Multitron Pro shaker (Infors, Bottmingen, Switzerland). Bioluminescence was measured on an Envision 2104 Multilabel plate reader (Perkin Elmer, Waltham, USA) with 1 s integration time. […] The initial hit inclusion criteria were a toxicity score of less than 50% and an AI-2 activity reduction below the average of all compound activity three times the standard deviation (-49.39% of activity).
Figure 2. Cell-based primary screen for AI-2 biosynthesis inhibitors. (A) Detailed assay protocol of the primary screen using engineered mammalian cells to identify inhibitors of quorum sensing. […] Aliquots of 10 μl of culture supernatants were transferred to black-bottomed assay plates and mixed with 40 μl of V. harveyi MM32 (AI-2 biosensor). AI-2-induced bioluminescence was measured 4 h later and normalized against the controls. In a secondary screen, the dose-response relationships of hit compounds are analyzed. To simultaneously assess effects on cell viability, compound-treated cells were supplemented with PrestoBlue and incubated for 1 h prior to resorufin fluorescence quantification. (B) Z’-evaluation of the AI-2 inhibitor assay.

E. coli = E. coli quorum sensing / AI-2 activity in supernatant; type: cell-based, Escherichia coli; conditions: Supplementary Figure S3
Description: The test strain E. coli RP437 was grown overnight in LB. Its optical density was measured on a Novaspec II photometer (Pharmacia, Freiburg, Germany) and the culture was diluted to a final OD600 of 0.1 the next morning. The bacteria were challenged with test compounds for 3 h, and then AI-2 activity in the culture supernatant was determined. Specifically, 90 μl of the AI-2 reporter strain V. harveyi (MM32), grown overnight in LM medium and then prediluted 1:500 in AB-medium containing 30 μg/ml kanamycin, was added to 10 μl of E. coli supernatant (10% v/v) in black-bottomed Fluotrac 200 96-well plates (Greiner Bio-One, Frickenhausen, Germany), which were shaken at 200 rpm, at 30°C. The AI-2 induced bioluminescence of MM32 was measured after 5 h. […]
Supplementary Figure 3 | Effect of hit candidates on Escherichia coli. […] AI-2-secreting E. coli (XL10-Gold) was grown for 3 h and AI-2 activity in the supernatant was quantified. […] Optical density (OD600) was measured after 24 h as a measure of cell growth. […] Then, planktonic cell growth (OD600) was measured and biofilm formation was quantified by means of crystal violet staining. (d) AI-2-secreting E. coli (RP437) was grown for 3 h in the presence of different compounds (10 µM), and then AI-2 activity in the supernatant was quantified. Optical density (OD600) was measured after 24 h.

Structure (SMILES): O=c1[nH]cc(F)c(=O)[nH]1 [5-Fluorouracil]
- pIC50 [1]: 6.34
- Effect on E. coli quorum sensing (E. coli): interfered with E. coli quorum sensing
